Entries after “also recorded” stand apart in the source; their conditions may differ.
Legend:
[1] = Water evaporation from tocopherol/water emulsions; format: physicochemical; details: uncapped vials, ambient conditions, nine days
Method: FIG. 3 is a bar graph depicting the percent water evaporation from a tocopherol/water emulsions at nine days, shown as the percent water lost.
Mixtures of α-tocopheryl acetate (EA), d-α-tocopheryl polyethylene glycol 1000 succinate (TPGS) and water were prepared at the ratios shown in Table 1, weighed, and placed in 20 ml-sized glass vials. Vials #1 through #6 were each capped and sonicated for two minutes to yield stable emulsions. The vials #1 through #8 were then uncapped and left at ambient conditions for nine days. All the emulsions in vials #1 through #6 remained stable. All vials were weighed subsequently to measure weight (water) loss. […] Results are also depicted in FIG. 3.

CDE symptoms = assay: Alleviation of CDE symptoms in contact lens-wearing individual, subjective comfort; format: in vivo, human
Excerpt: FIG. 1 is a bar graph depicting the subjective comfort of an individual applying a drop of α-tocopheryl acetate into the eye(s) before bedtime preceding the days indicated. Subjective comfort is depicted on a scale of 1 to 10; with 1 being very irritated, and right eye feeling swollen; and 10 being very comfortable and tolerable compared to no drops.
A volunteer used one drop of α-tocopheryl acetate in one or more eyes at night, and reported the irritation or comfort on a subjective scale of 1-to-10, (maximum irritation “1”, maximum comfort “10”) as shown in FIG. 1. At days 1 to 5, the individual placed one drop in the right eye only.

[2] = design: species or system New Zealand White (NZW) rabbits; details: both, New Zealand White, rabbit, in vivo
Method: FIG. 2 is a graph showing the levels of α-tocopheryl acetate in the tears of rabbits over the course of seven days after the rabbits were administered one drop of α-tocopheryl acetate (3.6 mg, 3.9 mg, 5.4 mg, or 6.0 mg) on day one.
Four adult New Zealand White (NZW) rabbits (two females, two males) each weighing 4.5 kilo to 5.0 kilo were used in this example. One drop of α-tocopheryl acetate, each weighing 3.6 mg, 3.9 mg, 5.4 mg and 6.0 mg, was instilled onto one eye of each animal. Tear samples were collected daily by filter paper, weighed, eluted in 300 μl MeOH and analyzed for tocopheryl acetate (EA) by LC/MS/MS. Detected tear levels of EA over a seven-day period ranged from 15 μg/ml to 36 μg/ml with a mean of 26 μg/ml (26,000 ng/ml). Detectable levels of EA in the cul-de-sac of the rabbit eye may last beyond seven days.

[3] = Water or saline stably absorbed in α-tocopheryl acetate (evaporative weight loss); format: physicochemical; details: sealed vials, 30° C., after 12 hrs
Method: In an alternative study, the concentrations of water or saline that would remain stably absorbed in α-tocopheryl acetate (EA) were examined. Equal volumes of water or 0.9% saline were placed with EA in sealed vials at 30° C. Samples of the resultant EA plus absorbed aqueous were removed at several time points and the water contents were assayed by evaporative weight loss to constant weight over time at 30° C. open to the air. After 12 hrs exposure of EA to water or the saline solution in sealed vials at 30° C. the maximum amounts of aqueous solutions absorbed in EA were reached. The resultant values were: 0.3% water absorbed and 0.6% saline solution absorbed.

dry eye syndrome = assay: Topical application of α-tocopheryl acetate eyedrop in human volunteers with dry eye symptoms; details: for duration of relief from dry eye symptoms: one drop about 50 μl

Structure (SMILES)	g wt loss [1]	ability to wear contact lenses (CDE symptoms; days 30-38, eyedrops not applied every single night)	duration of comfort before re-applying eyedrops (CDE symptoms; volunteer, one drop at night)	detected tear levels of EA, mean [2]	maximum saline solution absorbed in EA ([3]; equal volumes 0.9% saline and EA)	maximum water absorbed in EA ([3]; equal volumes water and EA)	irritation or blurred vision reported (dry eye syndrome; one drop about 50 μl in eye, two human volunteers)	duration of relief from dry eye symptoms (dry eye syndrome; no repeat applications, both volunteers)	duration of relief from dry eye symptoms (dry eye syndrome; one subject)
CC(=O)Oc1c(C)c(C)c2c(c1C)CCC(C)(CCC[C@H](C)CCC[C@H](C)CCCC(C)C)O2 (stereo partly drawn) [vial 8, α-tocopheryl acetate]	lost no weight	–	–	–	–	–	–	–	–
CC(=O)Oc1c(C)c(C)c2c(c1C)CCC(C)(CCC[C@H](C)CCC[C@H](C)CCCC(C)C)O2 (stereo partly drawn) [α-tocopheryl acetate]	–	able to wear contact lenses (days 30-38) in relative comfort	up to five days	26,000 ng/ml	0.6%	0.3%	No irritation or blurred vision	several days; also recorded: at least one day	at least seven days
